Earlier results on 3 molecules are cited in US20240350500A1, “PLK1 INHIBITOR IN COMBINATION WITH ANTI-ANGIOGENICS FOR TREATING METASTATIC CANCER” (CARDIFF ONCOLOGY, INC., priority 2022, published 2024).

Series [1] concerns AML. The settings on record: combination with LDAC.
Series [2] relates to AML. The conditions noted are these: intravenously in combination with LDAC, compared with LDAC alone; treatment naïve AML unsuitable for induction therapy.
The target of series [3] is PLK1 (Homo sapiens, UniProt P53350). The conditions noted are these: including other PLK members.
Series [4] relates to xenograft models of AML.
Series [5] deals with HT29 human colon adenocarcinoma xenografts. The settings on record: in combination with irinotecan, compared to each agent alone.
Series [6] has as its system disseminated models of AML. The conditions noted are these: in combination with cytarabine.
The test system of series [7] is AML cell lines.
The test system of series [8] is cell lines, both from solid as well as hematologic tumors.
The conditions of series [9]: rodent and nonrodent species.
The test system of series [10] is metastatic colorectal cancer. The conditions noted are these: 2nd line.
The mark [11] stands for this setting: bev naïve (without prior bevacizumab).

Like-named read-outs stand apart in the source and are kept apart here.

Sequence of PLK1 (P53350 whole entry): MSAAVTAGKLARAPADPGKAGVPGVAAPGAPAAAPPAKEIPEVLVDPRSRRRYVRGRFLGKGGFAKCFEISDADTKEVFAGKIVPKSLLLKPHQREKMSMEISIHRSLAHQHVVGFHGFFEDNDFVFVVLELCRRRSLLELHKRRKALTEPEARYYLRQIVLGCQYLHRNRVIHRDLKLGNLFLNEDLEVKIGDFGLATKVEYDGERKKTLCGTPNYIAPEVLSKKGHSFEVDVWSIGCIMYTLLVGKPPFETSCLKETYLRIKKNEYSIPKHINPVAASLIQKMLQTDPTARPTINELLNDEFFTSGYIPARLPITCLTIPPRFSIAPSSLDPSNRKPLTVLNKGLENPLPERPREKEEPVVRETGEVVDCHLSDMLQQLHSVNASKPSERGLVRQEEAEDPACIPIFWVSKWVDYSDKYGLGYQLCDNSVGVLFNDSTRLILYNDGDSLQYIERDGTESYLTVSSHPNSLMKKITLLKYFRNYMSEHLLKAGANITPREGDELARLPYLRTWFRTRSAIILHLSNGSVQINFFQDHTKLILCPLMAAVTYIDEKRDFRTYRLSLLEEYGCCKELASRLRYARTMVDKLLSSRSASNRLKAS

Take `CC[C@@H]1C(=O)N(C)c2cnc(Nc3ccc(C(=O)N[C@H]4CC[C@H](N5CCN(CC6CC6)CC5)CC4)cc3OC)nc2N1C(C)C` [volasertib]: in series [1], the “benefit of the combination” value was “no benefit” and the “risk of severe infections” value is “increased risk of severe infections”. Besides, the OS result in [2] is given as “significant increase in OS”.

As for `CN1CCN(c2ccc(OC(F)(F)F)c(Nc3ncc4c(n3)-c3c(c(C(N)=O)nn3CCO)CC4)c2)CC1` [onvansertib, 1-(2-hydroxyethyl)-8-{[5-(4-methylpiperazin-1-yl)-2-(trifluoromethoxy)phenyl]amino}-4,5-dihydro-1H-pyrazolo[4,3-h]quinazoline-3-carboxamide], the “specificity for PLK1 among a panel of 296 kinases” value in series [3] is listed as “high specificity”. The tumor growth entry in series [4] is given as “inhibited”. Besides, the tumor regression result in [5] is on record as “enhanced tumor regression”. For the same molecule, the “effect on cytarabine antitumor activity” value in series [6] is recorded as “significantly increased cytarabine antitumor activity”. Besides, the “inhibition of cell proliferation” value in series [7] was “inhibited cell proliferation at nanomolar concentrations”. Moreover, the cell-cycle effect entry in [8] (cancer cell lines) was “mitotic cell-cycle arrest followed by apoptosis”. The “potency in proliferation assays” value in [8] (large number of cell lines) was “low nanomolar activity”. Further, the oral bioavailability entry in [9] is on record as “good oral bioavailability”. In addition, the primary dose-limiting toxicities entry (patients with advanced/metastatic solid tumors) is “neutropenia and thrombocytopenia”. Also, the “time to recovery from hematologic toxicities” value (reversible) was ≤ 3 weeks.

Take “bevacizumab: anti-angiogenics (angiogenesis inhibitor), Avastin”: the results for the mOS in series [10] (setting [11]) and in [10] (patients with prior bev) were 13.9 months and 12.5 months, respectively. Further, the mPFS was 6.9 months in [10] (setting [11]) and 6.7 months in series [10] (patients with prior bev).
